Measurements as given in patent publication US11213027B2, “Combined administration of a penetration agent and a sulfur containing compound to plants” (THE STATE OF ISRAEL, MINISTRY OF AGRICULTURE & RURAL …, priority 2016, dated 2022).

Key:
[1] = tested on: Vitis vinifera cv. Early Sweet single-node cuttings; assay: Bud break on grapevine single-node cuttings in growth chamber; format: in vivo
cv. Early Sweet vines [2] = assay: Bud break on whole vines in a vineyard, Jordan Valley (spur pruning, hot winter); format: in vivo, Vitis vinifera; conditions: Example 2, FIG. 2, negative control Triton, positive control 5% HC
[3] = tested on: berries of cv. Early Sweet vines; assay: TSS (sugar) level of berries of treated vines; format: in vivo, Vitis vinifera; conditions: Example 3, FIG. 4; 6% DADS with 2% Armobreak®; Brix meter; versus control and HC
cv. Early Sweet vines [4] = assay: Bud break on whole vines, greenhouse in Argaman, Jordan Valley; format: in vivo, Vitis vinifera; conditions: Example 21, FIGS. 23A, 23B; 6% DADS alone (DADS 6% control); natural bud break about 25-45%
[5] = tested on: grapevine buds (cuttings, whole vine); conditions: cited from earlier work
[6] = tested on: corms, tubers and apple buds; conditions: cited from earlier work
whole vines in vineyards = assay: Overall bud break in vineyards, summary over the examples; format: in vivo, grapevine; conditions: spur pruned vineyard in region with higher chilling (FIG. 19, Example 17)

C=CCSSCC=C [DADS, diallyl disulfide]
bud break ([1]; Example 1, FIG. 1, 1% DADS sprayed with 0.02% Triton X-100, compared with 0.1%, 5% and 10% DADS): best result | bud break ([1]; Example 1, FIG. 1, 5% DADS sprayed with 0.02% Triton X-100, control 0.02% Triton X-100 only, 22° C., monitored to day 28): toxic and actually inhibit bud break | bud break ([1]; Example 1, FIG. 1, 10% DADS sprayed with 0.02% Triton X-100, control 0.02% Triton X-100 only, monitored to day 28): toxic and actually inhibit bud break | bud break (cv. Early Sweet vines [2]; 2% DADS with 0.02% Triton X-100): no effect | bud break (cv. Early Sweet vines [2]; 4% DADS with 0.02% Triton X-100): slight enhancement in bud break in comparison to the negative control | TSS levels of the berries (ripening) [3]: increase the total soluble solids (TSS) level of the berries in comparison to the control | bud break (cv. Early Sweet vines [4]): results within the range of the natural bud break | bud break enhancing effect ([5]; applied to the whole vine, rather than to cuttings): very limited and inferior to the known HC | grapevine bud break enhancement among garlic volatile compounds ([5]; volatile compounds containing sulfur and allyl groups): particularly effective | bud break [6]: enhanced bud break of corms, tubers and apple buds

C=CCSCC=C [DAS, Diallyl Sulfide]
bud break ([1]; Example 5, FIG. 7, higher concentrations of DAS (0.1%, 1%, 5% tested) with 2% Armobreak®, control 2% Armobreak®): may reduce bud breaking | bud break ([1]; Example 5, FIG. 7, relatively low concentrations of DAS (0.1%, 1%, 5% tested) with 2% Armobreak®, control 2% Armobreak®): enhance bud breaking in grapevine cuttings

N#CN [HC, hydrogen cyanamide]
bud break (whole vines in vineyards): a milder effect or no effect
